One experiment deals with mouse splenic lymphocyte. Nature of the experiment: In vitro mouse splenic lymphocyte-proliferation-stimulating effect (3H-TdR uptake). Format: cell-based, mouse (BDF1 female). The following applies: 2 days; for Uptake of 3H-TdR (% of control), splenic lymphocytes: 2880 min. The procedure, abridged:
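Spleen cells from 6-week-old female BDF1 mice, 2×10^6 cells/ml in 10% FCS RPMI 1640, cultured with vehicle or sample 2 days at 37° C, 5% CO2. ^3H-TdR (0.5 μCi/well) uptake over 6 h by scintillation counting, expressed as % of vehicle.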

The subject of experiment [1] is mixed lymphocyte culture reaction (spleen cells of C57BL/6 and BALB/C mice). Nature of the experiment: Mixed lymphocyte culture reaction (MLR). Format: cell-based, mouse (C57BL/6 stimulator, BALB/C responder). The conditions noted are these: 42 hours; for MLR activating rate (%): 2520 min. An outline of the steps: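 Mouse one-way MLR: mitomycin C-treated (50 μg/ml, 30 min) C57BL/6 spleen cells stimulated BALB/C responder spleen cells, 2×10^6 cells/ml each, cultured 42 h at 37 °C with sample. ³H-thymidine (0.5 μCi/well) incorporation over a further 8 h gave MLR activating rate as % of vehicle uptake.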

The test system of another experiment is mouse bone marrow cells. Nature of the experiment: In vitro mouse bone marrow cell-proliferation-promoting effect (3H-TdR uptake). The conditions noted are these: 4 days; for Uptake of 3H-TdR (% of control), bone marrow cells: 5760 min. The experiment is classed as cell-based, mouse (BDF1 female). An outline of the steps:
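Femoral bone marrow monocytes from 6-week female BDF1 mice (Lympholite M fraction, 1×10^6 cells/ml in 10% FCS RPMI 1640) cultured with sample for 4 days at 37 °C, 5% CO2. 3H-TdR (0.5 μCi/well) added for final 6 h; uptake ratio versus vehicle reported as activation rate.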

The test system of a further experiment is B16 mouse melanoma cells. Nature of the experiment: Tumor growth inhibition in mice subcutaneously inoculated with B16 mouse melanoma cells. The experiment is classed as in vivo, mouse (BDF1 female). The following applies: 0.1 mg/kg i.v. days 1, 5, 9; maximum during 20 days. As to the method: ii) Anti-tumor effect of the compound according to the present invention on mice subcutaneously inoculated with B16 mouse melanoma cells.
Experiment was performed with BDF1 female mice (6 weeks) purchased from NIPPON SLC K.K., which were divided into groups consisting of 6 animals. […]. The subcutaneous tumor volumes [(length×width×height)/2] were measured on days 8, 12, 16 and 20 after implantation to determine the tumor growth inhibiting rate (TGIR) of each sample. TGIR was calculated from the following formula: […]
wherein C: tumor volume in the control group, and
T: tumor volume in the sample adminitered groups.
In this connection, Compounds 1-6 and 7-9 were tested in the same time, respectively.

Experiment [2] has as its system P388 mouse leukemia cells. Nature of the experiment: Life-span-prolonging (anti-tumor) effect on mice subcutaneously inoculated with P388 mouse leukemia cells. The following applies: 0.1 mg/kg i.v. on days 1, 5 and 9; for Survival days ave. ± s. d.: all marked ** (p < 0.01). Format: in vivo, mouse (CDF1 female). The procedure, abridged: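 CDF1 female mice (6 weeks), 5 per group, inoculated subcutaneously with P388 leukemia cells; life-span prolongation assessed. Lentinan and picibanil given intravenously on days 1, 3, 5, 7 and 9 after implantation; sizofilan given subcutaneously on days 1 through 9. Statistics by Mann-Whitney test.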

Another experiment concerns lethally irradiated mice. Nature of the experiment: Radioprotective effect: life-span prolongation of lethally irradiated mice. Format: in vivo, mouse (BDF1 female). The conditions noted are these: 0.1 mg/kg i.v. days 0, 4, 8, 9 Gy X-ray, groups of 10. The method, then:
Life-span-prolonging effects of the present compounds on lethally irradiated mice.
Experiment was performed with BDF1 female mice (6 weeks old) purchased from NIPPON SLC K.K., which were divided into groups consisting of 10 animals. Mice were irradiated generally with 9 Gy of X-ray with an X-ray generating apparatus, Hitachi, MBR-1520R (radiation day: day 0). Samples at a dose of 0.1 mg/kg were administered into tail vein on days 0, 4 and 8 in order to observe the mortality of the animals for 40 days.
In the table, two experiments are separated by the broken line.

The source of these data is patent US5780441A, “Sphingoglycolipid compounds and therapeutic uses thereof” (Kirin Beer Kabushiki Kaisha, priority 1993, dated 1998).

Regarding `CCCCCCCCCCCCCCCCCCCCCC[C@@H](O)C(=O)N[C@@H](CO[C@H]1O[C@H](CO)[C@H](O)[C@H](O[C@H]2O[C@H](CO)[C@H](O)[C@H](O)[C@H]2NC(C)=O)[C@H]1O[C@H]1O[C@H](CO)[C@@H](O)[C@H](O)[C@H]1O)[C@H](O)[C@H](O)CCCCCCCCCCCCC` [Compound 2, O-(N-acetyl-2-amino-2-deoxy-α-D-galactopyranosyl)-(1→3)-O-[α-D-glucopyranosyl-(1→2)]-O-α-D-galactopyranosyl-(1→1)-(2S,3S,4R)-2-amino-N-[(R)-2-hydroxytetracosanoyl]-1,3,4-heptadecanetriol], the activity at 1 µg/mL with mouse splenic lymphocyte (Mus musculus, Splenic lymphocyte, 48 h, 10^0 μg/ml, read-out: Uptake of 3H-TdR (% of control), splenic lymphocytes) was determined as 890%; in experiment [1] (Mus musculus, Lymphocyte, 1 × 10^0 μg/ml, read-out: MLR activating rate (%)), 213%. In addition, the activity at 0.1 µg/mL in the experiment with mouse splenic lymphocyte (Mus musculus, Splenic lymphocyte, 48 h, 10^-1 μg/ml, read-out: Uptake of 3H-TdR (% of control), splenic lymphocytes) stood at 735%; in experiment [1] (Mus musculus, Lymphocyte, 1 × 10^-1 μg/ml, read-out: MLR activating rate (%)) it was 158%; with mouse bone marrow cells (Mus musculus, Bone marrow cell, 96 h, 10^-1 μg/ml, read-out: Uptake of 3H-TdR (% of control), bone marrow cells), 268%. The activity at 0.01 µg/mL with mouse splenic lymphocyte (Mus musculus, Splenic lymphocyte, 48 h, 10^-2 μg/ml, read-out: Uptake of 3H-TdR (% of control), splenic lymphocytes) turned out to be 508%; with mouse bone marrow cells (Mus musculus, Bone marrow cell, 96 h, 10^-2 μg/ml, read-out: Uptake of 3H-TdR (% of control), bone marrow cells), 276%. Further, in the experiment with mouse splenic lymphocyte (Mus musculus, Splenic lymphocyte, 48 h, 10^-3 μg/ml, read-out: Uptake of 3H-TdR (% of control), splenic lymphocytes), the activity at 0.001 µg/mL stood at 270%. The “Maximum tumor growth inhibiting rate, TGIR (%)” value with B16 mouse melanoma cells turned out to be 82.6%. Besides, the “Survival days ave. ± s. d.” value in experiment [2] was determined as 15.8 ± 0.5 days. Further, the response vs control in vivo at 0.1 mg/kg in experiment [2] (Mus musculus, P388, iv, survival vs vehicle, read-out: T/C (%)) came to 123%. Further, the “Number of surviving mice” value is on record as 10 mice in the experiment with lethally irradiated mice (day 10); 10 mice in the experiment on lethally irradiated mice (day 15); 10 mice in the experiment on lethally irradiated mice (day 20); 9 mice in the experiment on lethally irradiated mice (day 25); 9 mice with lethally irradiated mice (day 30); 9 mice in the experiment with lethally irradiated mice (day 35). In addition, in the experiment on lethally irradiated mice (day 40), the “Number of surviving mice” value was 9 mice.
On to `CCCCCCCCCCCCCCCCCCCCCC[C@@H](O)C(=O)N[C@@H](CO[C@H]1O[C@H](CO)[C@H](O)[C@H](O[C@H]2O[C@H](CO)[C@H](O)[C@H](O)[C@H]2NC(C)=O)[C@H]1O[C@H]1O[C@H](CO)[C@@H](O)[C@H](O)[C@H]1O)[C@H](O)[C@H](O)CCCCCCCCCCCC(C)C` [Compound 7, O-(N-acetyl-2-amino-2-deoxy-α-D-galactopyranosyl)-(1→3)-O-[α-D-glucopyranosyl-(1→2)]-O-α-D-galactopyranosyl-(1→1)-(2S,3S,4R)-2-amino-N-[(R)-2-hydroxytetracosanoyl]-16-methyl-1,3,4-heptadecanetriol], for which the “Uptake of 3H-TdR (% of control), splenic lymphocytes” value in the experiment with mouse splenic lymphocyte (10^0 μg/ml) is 927 % of control; with mouse splenic lymphocyte (10^-2 μg/ml) it was 705 % of control; in the experiment with mouse splenic lymphocyte (10^-3 μg/ml), 593 % of control. In addition, the “MLR activating rate (%)” value in experiment [1] (1 × 10^0 μg/ml) is listed as 234%; in experiment [1] (1 × 10^-1 μg/ml), 195%. In addition, the “Uptake of 3H-TdR (% of control), bone marrow cells” value in the experiment on mouse bone marrow cells (10^-1 μg/ml) was 451 % of control; in the experiment with mouse bone marrow cells (10^-2 μg/ml) it was 478 % of control. In addition, the “Maximum tumor growth inhibiting rate, TGIR (%)” value in the experiment on B16 mouse melanoma cells was determined as 78.1%. In experiment [2], the “Survival days ave. ± s. d.” value was found to be 15.8 ± 0.9 days. Besides, the “T/C (%)” value in experiment [2] (survival vs vehicle) is given as 123%. Moreover, the “Number of surviving mice” value in the experiment on lethally irradiated mice (day 10) turned out to be 10 mice; in the experiment on lethally irradiated mice (day 15, 0.1 mg/kg), 8 mice; in the experiment with lethally irradiated mice (day 20, 0.1 mg/kg), 6 mice; with lethally irradiated mice (day 25, 0.1 mg/kg), 3 mice; with lethally irradiated mice (day 30, 0.1 mg/kg) it was 3 mice; in the experiment on lethally irradiated mice (day 35, 0.1 mg/kg) it was 3 mice. Besides, the “Number of surviving mice” value in the experiment with lethally irradiated mice (day 40, 0.1 mg/kg) came to 3 mice.
In the case of `CCCCCCCCCCCCCCCCCCCCCC[C@@H](O)C(=O)N[C@@H](CO[C@H]1O[C@H](CO)[C@H](O)[C@H](O[C@H]2O[C@H](CO)[C@H](O)[C@H](O)[C@H]2NC(C)=O)[C@H]1O[C@H]1O[C@H](CO)[C@@H](O)[C@H](O)[C@H]1O)[C@H](O)[C@H](O)CCCCCCCCCCCCCC` [Compound 6, O-(N-acetyl-2-amino-2-deoxy-α-D-galactopyranosyl)-(1→3)-O-[α-D-glucopyranosyl-(1→2)]-O-α-D-galactopyranosyl-(1→1)-(2S,3S,4R)-2-amino-N-[(R)-2-hydroxytetracosanoyl]-1,3,4-octadecanetriol], the “Uptake of 3H-TdR (% of control), splenic lymphocytes” value with mouse splenic lymphocyte (10^0 μg/ml) is reported as 883 % of control; with mouse splenic lymphocyte (10^-1 μg/ml), 979 % of control; in the experiment with mouse splenic lymphocyte (10^-2 μg/ml), 649 % of control; in the experiment with mouse splenic lymphocyte (10^-3 μg/ml) it was 543 % of control. Further, the “MLR activating rate (%)” value is given as 228% in experiment [1] (1 × 10^0 μg/ml) and 194% in experiment [1] (1 × 10^-1 μg/ml). The “Uptake of 3H-TdR (% of control), bone marrow cells” value with mouse bone marrow cells (10^-1 μg/ml) was 431 % of control; in the experiment with mouse bone marrow cells (10^-2 μg/ml) it was 142 % of control. Besides, the “Maximum tumor growth inhibiting rate, TGIR (%)” value in the experiment on B16 mouse melanoma cells came to 91.2%. In experiment [2], the “Survival days ave. ± s. d.” value is 15.8 ± 1.1 days. For the same compound, the “T/C (%)” value in experiment [2] (survival vs vehicle) is 123%. Further, the “Number of surviving mice” value in the experiment with lethally irradiated mice (day 10, 0.1 mg/kg) is on record as 10 mice; in the experiment with lethally irradiated mice (day 15, 0.1 mg/kg) it was 10 mice; with lethally irradiated mice (day 20, 0.1 mg/kg) it was 8 mice; in the experiment on lethally irradiated mice (day 25, 0.1 mg/kg), 8 mice; in the experiment with lethally irradiated mice (day 30, 0.1 mg/kg), 8 mice; in the experiment on lethally irradiated mice (day 35, 0.1 mg/kg) it was 8 mice. For the same compound, the “Number of surviving mice” value with lethally irradiated mice (day 40, 0.1 mg/kg) amounted to 8 mice.
